Experimental data published in publication PMC2949283 (The Biochemical journal, 2009).
Where two headings read alike, the source gives them in different places.

Legend:
Assay type in all cases: biochemical
[1] = target: Y133A HuAChE (Homo sapiens, UniProt P22303, Y164A); assay: HuAChE inhibition kinetics
[2] = target: W86A HuAChE (Homo sapiens, UniProt P22303, W117A); assay: HuAChE inhibition kinetics
[3] = target: F297A HuAChE (Homo sapiens, UniProt P22303, F328A); assay: HuAChE inhibition kinetics
Chain of F297A HuAChE (P22303 32-614 F328A): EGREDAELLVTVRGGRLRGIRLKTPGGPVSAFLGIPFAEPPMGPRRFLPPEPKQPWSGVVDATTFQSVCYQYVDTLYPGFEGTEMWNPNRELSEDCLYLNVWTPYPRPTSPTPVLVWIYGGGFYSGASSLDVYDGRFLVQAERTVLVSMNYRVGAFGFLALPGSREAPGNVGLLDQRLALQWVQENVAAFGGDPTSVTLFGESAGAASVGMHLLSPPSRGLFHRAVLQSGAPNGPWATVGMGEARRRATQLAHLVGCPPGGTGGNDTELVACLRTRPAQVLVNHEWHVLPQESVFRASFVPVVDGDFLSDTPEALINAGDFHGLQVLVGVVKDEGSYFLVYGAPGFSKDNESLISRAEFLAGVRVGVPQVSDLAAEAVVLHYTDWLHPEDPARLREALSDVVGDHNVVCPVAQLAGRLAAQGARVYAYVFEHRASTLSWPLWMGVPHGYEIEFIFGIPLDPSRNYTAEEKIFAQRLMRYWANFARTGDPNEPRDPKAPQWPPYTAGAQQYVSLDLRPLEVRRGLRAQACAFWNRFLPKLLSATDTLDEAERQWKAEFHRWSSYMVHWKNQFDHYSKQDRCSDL

[4] = target: F295A/F297A HuAChE (Homo sapiens, UniProt P22303, F326A/F328A); assay: HuAChE inhibition kinetics
Chain of F295A/F297A HuAChE (P22303 32-614 F326A/F328A): as the sequence (P22303 32-614 F328A) above, with F295A counted along it

[5] = target: Y337A HuAChE (Homo sapiens, UniProt P22303, Y368A); assay: HuAChE inhibition kinetics
Chain of Y337A HuAChE (P22303 32-614 Y368A): as the sequence (P22303 32-614 F328A) above, with A297F, Y337A counted along it

[6] = target: F295A HuAChE (Homo sapiens, UniProt P22303, F326A); assay: HuAChE inhibition kinetics
Chain of F295A HuAChE (P22303 32-614 F326A): as the sequence (P22303 32-614 F328A) above, with F295A, A297F counted along it

[7] = target: Wild Type HuAChE (Homo sapiens, UniProt P22303); assay: HuAChE inhibition kinetics
Chain of Wild Type HuAChE (P22303 32-614): as the sequence (P22303 32-614 F328A) above, with A297F counted along it

[8] = target: F338A HuAChE (Homo sapiens, UniProt P22303, F369A); assay: HuAChE inhibition kinetics
Chain of F338A HuAChE (P22303 32-614 F369A): as the sequence (P22303 32-614 F328A) above, with A297F, F338A counted along it

[9] = target: W86A/Y337A HuAChE (Homo sapiens, UniProt P22303, W117A/Y368A); assay: biochemical
Chain of W86A/Y337A HuAChE (P22303 32-614 W117A/Y368A): as the sequence (P22303 32-614 F328A) above, with W86A, A297F, Y337A counted along it

[10] = target: HuBChE-Wild Type (Homo sapiens, UniProt P06276); assay: HuBChE inhibition kinetics; conditions: for k2, carbamylation rate constant: HuBChE-Wild Type
Chain of HuBChE-Wild Type (P06276 29-602): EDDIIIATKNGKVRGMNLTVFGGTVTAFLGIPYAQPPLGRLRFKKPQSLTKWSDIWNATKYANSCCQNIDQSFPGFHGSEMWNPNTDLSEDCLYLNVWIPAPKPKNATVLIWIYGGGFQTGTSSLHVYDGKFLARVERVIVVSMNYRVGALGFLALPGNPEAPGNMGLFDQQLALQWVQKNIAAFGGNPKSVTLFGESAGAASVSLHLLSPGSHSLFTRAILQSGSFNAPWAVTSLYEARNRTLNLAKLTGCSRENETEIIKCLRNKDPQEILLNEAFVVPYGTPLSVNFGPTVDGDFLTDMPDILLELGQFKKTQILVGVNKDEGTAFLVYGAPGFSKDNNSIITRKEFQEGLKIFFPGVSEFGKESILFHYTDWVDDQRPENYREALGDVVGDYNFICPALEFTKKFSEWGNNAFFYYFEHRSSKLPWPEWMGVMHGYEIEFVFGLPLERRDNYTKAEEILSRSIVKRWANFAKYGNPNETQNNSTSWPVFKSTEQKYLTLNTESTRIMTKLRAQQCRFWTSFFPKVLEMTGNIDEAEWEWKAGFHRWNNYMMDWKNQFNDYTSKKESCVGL

[11] = target: Y72N/Y124Q/W286A/ F295L/F297V/Y337A HuAChE (Homo sapiens, UniProt P22303, F326L/F328V/W317A/Y103N/Y155Q/Y368A); assay: HuAChE inhibition kinetics
Chain of Y72N/Y124Q/W286A/ F295L/F297V/Y337A HuAChE (P22303 32-614 Y103N/Y155Q/W317A/F326L/F328V/Y368A): as the sequence (P22303 32-614 F328A) above, with Y72N, Y124Q, W286A, F295L, A297V, Y337A counted along it

[12] = target: Y133F HuAChE (Homo sapiens, UniProt P22303, Y164F); assay: HuAChE inhibition kinetics; conditions: for k2, carbamylation rate constant: Y133F HuAChE
Chain of Y133F HuAChE (P22303 32-614 Y164F): as the sequence (P22303 32-614 F328A) above, with Y133F, A297F counted along it

[13] = target: F295A/F338A HuAChE (Homo sapiens, UniProt P22303, F326A/F369A); assay: HuAChE inhibition kinetics
Chain of F295A/F338A HuAChE (P22303 32-614 F326A/F369A): as the sequence (P22303 32-614 F328A) above, with F295A, A297F, F338A counted along it

[14] = target: F295L/F297V/Y337A HuAChE (Homo sapiens, UniProt P22303, F326L/F328V/Y368A); assay: HuAChE inhibition kinetics; conditions: for k2, carbamylation rate constant: F295L/F297V/Y337A HuAChE
Chain of F295L/F297V/Y337A HuAChE (P22303 32-614 F326L/F328V/Y368A): as the sequence (P22303 32-614 F328A) above, with F295L, A297V, Y337A counted along it

[15] = target: W86F HuAChE (Homo sapiens, UniProt P22303, W117F); assay: HuAChE inhibition kinetics; conditions: for k2, carbamylation rate constant: W86F HuAChE
Chain of W86F HuAChE (P22303 32-614 W117F): as the sequence (P22303 32-614 F328A) above, with W86F, A297F counted along it

[16] = target: Y72N/Y124Q/W286A/ F295L/F297V/Y337A/ V407F HuAChE (Homo sapiens, UniProt P22303, F326L/F328V/V438F/W317A/Y103N/Y155Q/Y368A); assay: HuAChE inhibition kinetics
Chain of Y72N/Y124Q/W286A/ F295L/F297V/Y337A/ V407F HuAChE (P22303 32-614 Y103N/Y155Q/W317A/F326L/F328V/Y368A/V438F): as the sequence (P22303 32-614 F328A) above, with Y72N, Y124Q, W286A, F295L, A297V, Y337A, V407F counted along it

[17] = target: Y341A HuAChE (Homo sapiens, UniProt P22303, Y372A); assay: HuAChE inhibition kinetics; conditions: for k2, carbamylation rate constant: Y341A HuAChE
Chain of Y341A HuAChE (P22303 32-614 Y372A): as the sequence (P22303 32-614 F328A) above, with A297F, Y341A counted along it

[18] = target: W286A HuAChE (Homo sapiens, UniProt P22303, W317A); assay: HuAChE inhibition kinetics
Chain of W286A HuAChE (P22303 32-614 W317A): as the sequence (P22303 32-614 F328A) above, with W286A, A297F counted along it

[19] = target: E450A HuAChE (Homo sapiens, UniProt P22303, E481A); assay: HuAChE inhibition kinetics; conditions: for k2, carbamylation rate constant: E450A HuAChE
Chain of E450A HuAChE (P22303 32-614 E481A): as the sequence (P22303 32-614 F328A) above, with A297F, E450A counted along it

[20] = target: F295A/F338A/V407F HuAChE (Homo sapiens, UniProt P22303, F326A/F369A/V438F); assay: HuAChE inhibition kinetics; conditions: for k2, carbamylation rate constant: F295A/F338A/V407F HuAChE
Chain of F295A/F338A/V407F HuAChE (P22303 32-614 F326A/F369A/V438F): as the sequence (P22303 32-614 F328A) above, with F295A, A297F, F338A, V407F counted along it

[21] = target: E202A HuAChE (Homo sapiens, UniProt P22303, E233A); assay: HuAChE inhibition kinetics; conditions: for k2, carbamylation rate constant: E202A HuAChE
Chain of E202A HuAChE (P22303 32-614 E233A): as the sequence (P22303 32-614 F328A) above, with E202A, A297F counted along it

[22] = target: F295L/F297V HuAChE (Homo sapiens, UniProt P22303, F326L/F328V); assay: HuAChE inhibition kinetics; conditions: for k2, carbamylation rate constant: F295L/F297V HuAChE
Chain of F295L/F297V HuAChE (P22303 32-614 F326L/F328V): as the sequence (P22303 32-614 F328A) above, with F295L, A297V counted along it

[23] = target: Y337F HuAChE (Homo sapiens, UniProt P22303, Y368F); assay: HuAChE inhibition kinetics; conditions: for k2, carbamylation rate constant: Y337F HuAChE
Chain of Y337F HuAChE (P22303 32-614 Y368F): as the sequence (P22303 32-614 F328A) above, with A297F, Y337F counted along it

[24] = target: E202Q HuAChE (Homo sapiens, UniProt P22303, E233Q); assay: HuAChE inhibition kinetics; conditions: for k2, carbamylation rate constant: E202Q HuAChE
Chain of E202Q HuAChE (P22303 32-614 E233Q): as the sequence (P22303 32-614 F328A) above, with E202Q, A297F counted along it

[25] = target: Y72N HuAChE (Homo sapiens, UniProt P22303, Y103N); assay: HuAChE inhibition kinetics; conditions: for k2, carbamylation rate constant: Y72N HuAChE
Chain of Y72N HuAChE (P22303 32-614 Y103N): as the sequence (P22303 32-614 F328A) above, with Y72N, A297F counted along it

[26] = target: D74N HuAChE (Homo sapiens, UniProt P22303, D105N); assay: HuAChE inhibition kinetics; conditions: for k2, carbamylation rate constant: D74N HuAChE
Chain of D74N HuAChE (P22303 32-614 D105N): as the sequence (P22303 32-614 F328A) above, with D74N, A297F counted along it

[27] = target: Y124A HuAChE (Homo sapiens, UniProt P22303, Y155A); assay: HuAChE inhibition kinetics
Chain of Y124A HuAChE (P22303 32-614 Y155A): as the sequence (P22303 32-614 F328A) above, with Y124A, A297F counted along it

[28] = read-out: Kd, Michaelis complex (Eq. 1), Y133A HuAChE, NI = No inhibition between […]10^−6- […]10^−4M
[29] = read-out: Kd, noncovalent inhibition (competition with ATC), W86A HuAChE
[30] = read-out: Kd, noncovalent inhibition (competition with ATC), Y337A HuAChE
[31] = read-out: Kd, noncovalent inhibition (competition with ATC), Wild Type HuAChE
[32] = read-out: Kd, noncovalent inhibition (competition with ATC), F338A HuAChE
[33] = Y72N/Y124Q/W286A/F295L/F297V/Y337A HuAChE
[34] = Y72N/Y124Q/W286A/F295L/F297V/Y337A/V407F HuAChE

Chain of W86A HuAChE (P22303 32-614 W117A): as the sequence (P22303 32-614 F328A) above, with W86A, A297F counted along it
Chain of Y133A HuAChE (P22303 32-614 Y164A): as the sequence (P22303 32-614 F328A) above, with Y133A, A297F counted along it

physovenine [(+)-Physovenine]
Kd [1, 28]: > 250 µM
Kd ([2]; read-out: Kd, Michaelis complex (Eq. 1), W86A HuAChE): 280 ± 28.5 µM
Kd ([3]; read-out: Kd, Michaelis complex (Eq. 1), F297A HuAChE): 1 ± 0.35 µM
Kd ([4]; read-out: Kd, Michaelis complex (Eq. 1)): 0.28 ± 0.08 µM
Kd ([5]; read-out: Kd, Michaelis complex (Eq. 1), Y337A HuAChE): 15 ± 1.6 µM
Kd ([6]; read-out: Kd, Michaelis complex (Eq. 1), F295A HuAChE): 0.09 ± 0.025 µM
Kd ([7]; read-out: Kd, Michaelis complex (Eq. 1), Wild Type HuAChE): 1.4 ± 0.13 µM
Kd ([8]; read-out: Kd, Michaelis complex (Eq. 1), F338A HuAChE): 0.7 ± 0.1 µM
Kd ([9]; read-out: Kd, Michaelis complex (Eq. 1), […], Table 3: Activity measured with TB): 281 ± 45 µM

CCN(C)C(=O)Oc1cccc([C@H](C)N(C)C)c1 [Rivastigmine, rivastigmine]
k2 higher than for HuAChE ([10]; HuBChE vs HuAChE): 9 fold
reactivity toward HuBChE higher than toward HuAChE ([10]; HuBChE vs HuAChE): 15 fold
k2, carbamylation rate constant [10]: 0.90 ± 0.03 min⁻¹

CNC(=O)Oc1ccc2c(c1)[C@]1(C)CCO[C@@H]1N2C [(−)-Physovenine, physovenine]
Kd [1, 28]: > 250 µM
Kd [2]: 120 ± 24 µM
Kd [3]: 0.63 ± 0.04 µM
Kd ([4]; Kd, Michaelis complex (Eq. 1)): 0.23 ± 0.07 µM
Kd [5]: 0.85 ± 0.2 µM
Kd [6]: 0.1 ± 0.027 µM
Kd [7]: 0.43 ± 0.09 µM
Kd [8]: 2.56 ± 0.6 µM
Kd [9]: 413 ± 85 µM

CC(C)c1ccc(NC(=O)Oc2ccc3c(c2)[C@]2(C)CCN(C)[C@@H]2N3C)cc1 [(−)Cymserine, cymserine]
mode of inhibition ([7]; HuAChE enzymes): noncovalent inhibitor

CC(C)c1ccc(NC(=O)Oc2ccc3c(c2)C2(C)CCOC2N3C)cc1 (single isomer, unassigned; (+)) [(+)-Cymyl carbamate of physovenol, cymyl carbamate of physovenol]
Kd [2, 29]: 5 ± 1.3 µM
Kd [5, 30]: 2.2 ± 0.7 µM
Kd [7, 31]: 1 ± 0.2 µM
Kd [8, 32]: 57.1 ± 15 µM

CC(C)c1ccc(NC(=O)Oc2ccc3c(c2)C2(C)CCOC2N3C)cc1 (single isomer, unassigned; (-)) [(−)-Cymyl carbamate of physovenol, cymyl carbamate of physovenol]
Kd [2, 29]: 2.5 ± 0.2 µM
Kd [5, 30]: 2.7 ± 1 µM
Kd [7, 31]: 0.71 ± 0.12 µM
Kd [8, 32]: 40 ± 12 µM

CN1CC[C@@]2(C)c3cc(OC(=O)Nc4ccccc4)ccc3N(C)[C@@H]12 [(−)-Phenserine, phenserine]
Kd [1]: 76 ± 15 µM
k2, carbamylation rate constant ([1]; Y133A HuAChE): 0.4 ± 0.06 min⁻¹
Kd [11]: 0.12 ± 0.03 µM
Kd [10]: 9 ± 3 µM
k2, carbamylation rate constant [10]: 0.6 ± 0.2 min⁻¹
Kd [2]: 20 ± 9 µM
k2, carbamylation rate constant ([2]; W86A HuAChE): 1.3 ± 1.0 min⁻¹
Kd [12]: 7.6 ± 1.9 µM
k2, carbamylation rate constant [12]: 0.3 ± 0.09 min⁻¹
Kd [13]: 0.03 ± 0.008 µM
Kd [14]: 0.3 ± 0.006 µM
k2, carbamylation rate constant [14]: 0.9 ± 0.2 min⁻¹
Kd [15]: 0.87 ± 0.34 µM
k2, carbamylation rate constant [15]: 1.3 ± 0.9 min⁻¹
Kd [16]: 20.3 ± 6.1 µM
Kd [17]: 0.69 ± 0.21 µM
k2, carbamylation rate constant [17]: 0.7 ± 0.3 min⁻¹
Kd [18]: 0.16 ± 0.03 µM
k2, carbamylation rate constant ([3]; F297A HuAChE): 1.0 ± 0.5 min⁻¹
k2, carbamylation rate constant [4]: 8.5 ± 2.5 min⁻¹
Kd ([4]; Kd, Michaelis complex (Eq. 1)): 2.8 ± 0.8 µM
Kd [19]: 7.4 ± 1.9 µM
k2, carbamylation rate constant [19]: 0.2 ± 0.04 min⁻¹
Kd [5]: 2.75 ± 0.28 µM
k2, carbamylation rate constant ([5]; Y337A HuAChE): 0.8 ± 0.4 min⁻¹
Kd [6]: 0.09 ± 0.04 µM
k2, carbamylation rate constant ([6]; F295A HuAChE): 2.1 ± 1.2 min⁻¹
Kd [20]: 27.2 ± 5.5 µM
k2, carbamylation rate constant [20]: 0.3 ± 0.1 min⁻¹
Kd [21]: 9.1 ± 3.6 µM
k2, carbamylation rate constant [21]: 0.2 ± 0.1 min⁻¹
Kd [7]: 1.39 ± 0.55 µM
k2, carbamylation rate constant ([7]; Wild Type HuAChE): 0.9 ± 0.5 min⁻¹
Kd [22]: 0.8 ± 0.36 µM
k2, carbamylation rate constant [22]: 3.0 ± 1.8 min⁻¹
Kd [8]: 41.3 ± 9.5 µM
k2, carbamylation rate constant ([8]; F338A HuAChE): 0.7 ± 0.1 min⁻¹
Kd [23]: 0.28 ± 0.03 µM
k2, carbamylation rate constant [23]: 0.9 ± 0.07 min⁻¹
Kd [24]: 17.4 ± 3.4 µM
k2, carbamylation rate constant [24]: 3.2 ± 1 min⁻¹
Kd [25]: 0.74 ± 0.19 µM
k2, carbamylation rate constant [25]: 1.7 ± 0.2 min⁻¹
Kd [26]: 3.4 ± 0.61 µM
k2, carbamylation rate constant [26]: 0.7 ± 0.01 min⁻¹

CNC(=O)Oc1ccc2c(c1)[C@]1(C)CCN(C)[C@@H]1N2C [(−)-Physostigmine, (−)physostigmine salicylate]
k2, carbamylation rate constant ([1]; Y133A HuAChE): 0.40 ± 0.02 min⁻¹
k2, carbamylation rate constant [11, 33]: 0.20 ± 0.05 min⁻¹
ki, bimolecular rate constant of carbamylation [11, 33]: 34±1.2 × 10^−4 M^−1min^−1
k2, carbamylation rate constant [10]: 0.55 ± 0.05 min⁻¹
k2, carbamylation rate constant ([2]; W86A HuAChE): 0.80 ± 0.30 min⁻¹
k2, carbamylation rate constant [12]: 0.13 ± 0.01 min⁻¹
k2, carbamylation rate constant ([13]; F295A/F338A HuAChE): 4.5 ± 0.9 min⁻¹
ki, bimolecular rate constant of carbamylation ([13]; F295A/F338A HuAChE): 78±19 × 10^−4 M^−1min^−1
k2, carbamylation rate constant [14]: 0.75 ± 0.20 min⁻¹
k2, carbamylation rate constant [15]: 0.90 ± 0.20 min⁻¹
k2, carbamylation rate constant [16, 34]: 1.25 ± 0.25 min⁻¹
ki, bimolecular rate constant of carbamylation [16, 34]: 18±3 × 10^−4 M^−1min^−1
k2, carbamylation rate constant [17]: 1.90 ± 0.30 min⁻¹
k2, carbamylation rate constant ([18]; W286A HuAChE): 2.70 ± 0.80 min⁻¹
ki, bimolecular rate constant of carbamylation ([18]; W286A HuAChE): 365±40 × 10^−4 M^−1min^−1
k2, carbamylation rate constant ([3]; F297A HuAChE): 0.60 ± 0.10 min⁻¹
k2, carbamylation rate constant [4]: 0.6 ± 0.2 min⁻¹
k2, carbamylation rate constant [19]: 0.15 ± 0.01 min⁻¹
k2, carbamylation rate constant ([5]; Y337A HuAChE): 1.10 ± 0.50 min⁻¹
k2, carbamylation rate constant ([6]; F295A HuAChE): 1.60 ± 0.50 min⁻¹
k2, carbamylation rate constant [20]: 0.2 ± 0.03 min⁻¹
k2, carbamylation rate constant [21]: 0.24 ± 0.05 min⁻¹
k2, carbamylation rate constant ([7]; Wild Type HuAChE): 1.2 ± 0.5 min⁻¹
k2, carbamylation rate constant [22]: 2.0 ± 0.4 min⁻¹
k2, carbamylation rate constant ([8]; F338A HuAChE): 0.40 ± 0.20 min⁻¹
k2, carbamylation rate constant [27]: 6.0 ± 1.8 min⁻¹
ki, bimolecular rate constant of carbamylation [27]: 150±3 × 10^−4 M^−1min^−1
k2, carbamylation rate constant [23]: 1.90 ± 0.40 min⁻¹
k2, carbamylation rate constant [24]: 0.80 ± 0.20 min⁻¹
k2, carbamylation rate constant [25]: 0.9 ± 0.14 min⁻¹
k2, carbamylation rate constant [26]: 2.40 ± 0.50 min⁻¹
k2, carbamylation rate constant [9]: 1.2 ± 0.18 min⁻¹
ki, bimolecular rate constant of carbamylation [9]: 866 ±130 × 10^−4 M^−1min^−1
